Laboratory results from patent US20160045498A1, “METHODS OF TREATING DISEASES CHARACTERIZED BY EXCESSIVE WNT SIGNALLING” (THE WALTER AND ELIZA HALL INSTITUTE OF MEDICAL RESEARCH, priority 2013, published 2016).

Tests used:
[1] = system: SW480^APC cells; experiment: Soft agar colony growth assay, SW480APC; type: cell-based, human; conditions: 10 days, AZD1480 1 μM, S3I-201 50 μM, IL11 10 ng/ml
Procedure: e Photograph of SW480 and SW480^APC CRC cells grown for 10 days under colony forming conditions in soft agar in the presence of vehicle or 1 μM of Jak2 inhibitor AZD1480 (Jak2i) (Scale bar=200 μm)
f Colony forming capacity of an isogenic pair of SW480 cells scored 10 days after the indicated treatment. (*p≦0.04; triplicate cultures and repeated).
(§1) SW480 and SW480^APC cells (Faux et al., 2004) were seeded in 2 ml of RPMI media supplemented with 10% FBS and 1% penicillin/streptomycin in 35 mm culture dishes at a density of 2×10^5 cells per dish. Three days later cultures were exposed to AZD1480 (1 μM) for 15 min. Co-immunofluorescence was then performed with antibodies to rabbit phospho-Stat3 (Tyr705, Santa Cruz #9134s, 1:200 dilution) and mouse β-catenin (Transduction Laboratories, 1:400). Colony formation assays of SW480 cells in soft agar were performed as described (Faux et al., 2004) in the presence of either AZD1480, (1 μM), the Stat3 inhibitor S3I-201 (Biovision, 50 μM) or recombinant human IL11 (Genetics Institute, 10 ng/ml). All experiments were performed in triplicates and repeated at least once. Vehicle was methylcellulose.

[2] = system: SW480^APC cells; experiment: p-STAT3 immunofluorescence and SOCS3 RT-qPCR in SW480APC cells; type: cell-based, human
Procedure: d Immunofluorescence staining for β-CATENIN or tyrosine-705 phosphorylated STAT3 in an isogenic pair of SW480 cells grown in the presence of 1 μM AZD1480 (Jak2i) or vehicle. SW480 cells are APC mutant and lack expression of functional APC protein, while SW480^APC cells have been reconstituted to express wild-type APC. Scale bar=20 μm.
g RT-qPCR expression analysis for the STAT3 target gene SOCS3 in SW480 and SW480^APC CRC cells grown for 10 days under colony forming conditions in soft agar in the presence of the indicated treatment. Expression in the vehicle-treated cultures was arbitrarily set as 1. (*p≦0.04; triplicate cultures in each of two repeats).
as §1
Gene expression analysis by RT-qPCR was performed using the SybrGreen method (ABI) as described previously (Phesse et al., 2008). Fold change was calculated using the 2^−ΔΔCT method (Livak et al., 2001). Protein expression was analysed by Western blot by transferring SDS-PAGE separated protein lysates to nitrocellulose membrane and blocked either in 5% non-fat milk powder and probed with antibodies detecting p16 (Santa Cruz; #sc-467), Bmi1 (Millipore #[…]), Actin (Sigma; #A2066) or Gapdh (Santa Cruz; #sc-69778). All antibodies were diluted 1:1000 in BSA or non-fat milk powder and incubations were performed overnight.

[3] = system: intestinal tumours; experiment: Intestinal tumour burden after tamoxifen-induced conditional Apc deletion in Lgr5CreERT2;Apcfl/fl mice; type: in vivo; conditions: tamoxifen-treated Lgr5^CreERT2;Apc^fl/fl mice, prophylactic daily AZD1480 30 mg/kg, 5 weeks
Procedure: e Quantification of intestinal tumour burden of mice using the Metamorph analysis tool (Barker et al., 2009) after tamoxifen-induced conditional Apc deletion in adult Lgr5^CreERT2;Apc^fl/fl mice that also received daily administration of AZD1480 (30 mg/kg) or vehicle during this time. (*p≦0.04; n=3 mice).
d Intestinal tumour burden 5 weeks after tamoxifen-induced conditional Apc deletion in adult Lgr5^CreERT2;Apc^fl/fl mice that also received daily administration of AZD1480 (Jak2i; 30 mg/kg) or vehicle during this time. Higher magnifications of the boxed areas are provided and arrows point to tubular adenomas whilst arrowheads point to micro-adenomas. Scale bars=1 mm.
10 week old Lgr5CreERT2;Apcfl/fl mice received four i.p injections with tamoxifen (10 mg/ml; 300 ul, 200 ul, 200 ul, 200 ul) over four consecutive days. Three days after the last injection, mice received daily oral gavages with either vehicle (tap water, pH 2.0) or CYT387 (30 mg/kg) for four weeks. Regime was 5 days treatment followed by 2 days off treatment.
Hematoxilin and Eosin-stained sections were scanned using an Aperio ScanScope XT (Aperio, USA) pathology slide scanner with a 20x PlanApo NA0.6 objective and areas of interest were extracted using Aperio ImageScope software v11.1.2.760. The area of individual tumors was outlined using MetaMorph v7.7.7 and standardized against the entire length of the colon section as described (Barker et al., 2009).

[4] = system: intestinal epithelium; experiment: Homeostatic turnover of the intestinal epithelium and body weight in treated mice; type: in vivo
Procedure: a qRT-PCR expression analysis for Wnt target genes from RNA extracted from AZD1480 or vehicle-treated BALB/c-nude hosts used for the xenograft experiments (*p<0.04, n≧5 mice). b Immunohistochemical analysis of cell proliferation (BrdU), goblet cells (Periodic Acid/Schiff, PAS) and Paneth cells ([…]) or vehicle Control. Scale bar 50 μm. c Weight of BALB/c-nude mice treated with either vehicle or AZD1480 (30 mg/kg, daily) between days 5 and 21 of xenograft experiment (n=8).

[5] = mice treated for 3 weeks, 30 mg/kg daily, vs vehicle

Cc1cc(Nc2nc(N[C@@H](C)c3ncc(F)cn3)ncc2Cl)n[nH]1 [AZD1480]
colony formation in soft agar [1]: did not affect colony formation
accumulation of activated (phosphorylated) p-STAT3 ([2]; 1 μM AZD1480): reduced accumulation
SOCS3 expression ([2]; RT-qPCR, AZD1480 1 μM, IL11 10 ng/ml): reduced SOCS3 expression
growth and de novo tumour formation [3]: profoundly reduced
body weight ([4]; BALB/c-nude mice, 30 mg/kg daily, days 5 to 21 of xenograft experiment): did not affect body weight
intestinal expression of prototypical Wnt target genes ([4]; BALB/c-nude xenograft hosts, qRT-PCR): remained unaffected
proportion of BrDU-positive proliferating intestinal epithelium cells [4, 5]: no differences
proportion of PAS-staining goblet cells [4, 5]: no differences
proportion of lysozyme-positive Paneth cells [4, 5]: no differences
